Experimental data: ChEMBL document CHEMBL4373715, “Discovery and Biological Evaluations of Halogenated 2,4-Diphenyl Indeno[1,2-b]pyridinol Derivatives as Potent Topoisomerase IIα-Targeted Chemotherapeutic Agents for Breast Cancer” (J Med Chem, 2019)
Calls of active or inactive are those of the source. The rule behind the calls is not given here.

Tests used:
[1] = Stability in mouse plasma assessed as parent compound remaining at 1 mM measured immediately by LC-MS/MS analysis; format: ADME, cell-free; conditions: read-out: Stability
[2] = Stability in rat plasma assessed as parent compound remaining at 1 mM measured after 2 hrs by LC-MS/MS analysis; format: ADME, cell-free; conditions: 1000 µM
[3] = target: T1, DNA topoisomerase 1 (Homo sapiens) (UniProt P11387); test: Inhibition of recombinant human topoisomerase 1-mediated relaxation of supercoiled pBR322 DNA at 100 uM measured after 30 mins by ethidium bromide staining based agarose gel electrophoresis relative to control
T1 sequence (whole entry): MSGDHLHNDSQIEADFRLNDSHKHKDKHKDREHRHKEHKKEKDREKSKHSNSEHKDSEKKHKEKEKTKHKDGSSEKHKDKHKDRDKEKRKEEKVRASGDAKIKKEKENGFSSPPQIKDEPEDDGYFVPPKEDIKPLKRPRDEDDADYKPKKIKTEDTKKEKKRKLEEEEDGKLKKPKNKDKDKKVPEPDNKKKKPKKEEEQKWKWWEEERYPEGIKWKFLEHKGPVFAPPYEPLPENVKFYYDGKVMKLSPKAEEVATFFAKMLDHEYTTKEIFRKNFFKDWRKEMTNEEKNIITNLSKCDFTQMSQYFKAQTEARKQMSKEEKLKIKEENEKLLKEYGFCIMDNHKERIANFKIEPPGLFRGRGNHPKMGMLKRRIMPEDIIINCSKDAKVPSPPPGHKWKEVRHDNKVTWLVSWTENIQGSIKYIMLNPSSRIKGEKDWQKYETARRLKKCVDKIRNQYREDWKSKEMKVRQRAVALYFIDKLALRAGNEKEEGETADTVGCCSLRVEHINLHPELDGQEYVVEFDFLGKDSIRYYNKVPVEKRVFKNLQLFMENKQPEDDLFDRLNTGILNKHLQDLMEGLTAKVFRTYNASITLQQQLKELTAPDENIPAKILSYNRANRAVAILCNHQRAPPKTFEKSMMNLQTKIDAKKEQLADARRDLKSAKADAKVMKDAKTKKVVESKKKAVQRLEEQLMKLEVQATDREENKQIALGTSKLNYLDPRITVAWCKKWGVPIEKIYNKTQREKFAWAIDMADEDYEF

[4] = test system: Calf thymus DNA; test: Inhibition of EtBr binding to calf thymus DNA up to 40 uM measured after 30 mins by fluorescence assay; format: nucleic-acid assay; conditions: Bos taurus
[5] = Toxicity in male ICR mouse assessed as mortality at 100 mg/kg, iv administered as single dose measured daily for 7 days (reference value: 0%); format: organism-based; conditions: in vivo
[6] = test system: DU-145; test: Antiproliferative activity against human DU145 cells measured after 72 hrs by EZ-Cytox assay; format: functional, cell-based; conditions: DU-145, 72 h
[7] = Stability in rat plasma assessed as parent compound remaining at 1 mM measured after 0.25 hrs by LC-MS/MS analysis; format: ADME, cell-free; conditions: read-out: Stability
[8] = test system: T47D; test: Antiproliferative activity against human T47D cells measured after 72 hrs by EZ-Cytox assay; format: functional, cell-based
[9] = Stability in rat plasma assessed as parent compound remaining at 1 mM measured after 4 hrs by LC-MS/MS analysis; format: ADME, cell-free; conditions: 1000 µM
[10] = target: DNA topoisomerase 2-alpha (Homo sapiens) (UniProt P11388); test: Poison activity at recombinant human topoisomerase-2 alpha assessed as stabilization of enzyme-DNA cleavage complex by measuring linear DNA formation at 500 uM using supercoiled pBR322 DNA as substrate after 60 mins by agarose gel electrophoresis method
[11] = Toxicity in male ICR mouse assessed as change in body weight at 50 to 100 mg/kg, iv administered as single dose measured daily for 7 days; format: organism-based; conditions: in vivo, 168 h
[12] = Stability in human plasma assessed as parent compound remaining at 1 mM measured after 4 hrs by LC-MS/MS analysis; format: ADME, cell-free; conditions: read-out: Stability

Sequence of DNA topoisomerase 2-alpha (Homo sapiens) (P11388 whole entry): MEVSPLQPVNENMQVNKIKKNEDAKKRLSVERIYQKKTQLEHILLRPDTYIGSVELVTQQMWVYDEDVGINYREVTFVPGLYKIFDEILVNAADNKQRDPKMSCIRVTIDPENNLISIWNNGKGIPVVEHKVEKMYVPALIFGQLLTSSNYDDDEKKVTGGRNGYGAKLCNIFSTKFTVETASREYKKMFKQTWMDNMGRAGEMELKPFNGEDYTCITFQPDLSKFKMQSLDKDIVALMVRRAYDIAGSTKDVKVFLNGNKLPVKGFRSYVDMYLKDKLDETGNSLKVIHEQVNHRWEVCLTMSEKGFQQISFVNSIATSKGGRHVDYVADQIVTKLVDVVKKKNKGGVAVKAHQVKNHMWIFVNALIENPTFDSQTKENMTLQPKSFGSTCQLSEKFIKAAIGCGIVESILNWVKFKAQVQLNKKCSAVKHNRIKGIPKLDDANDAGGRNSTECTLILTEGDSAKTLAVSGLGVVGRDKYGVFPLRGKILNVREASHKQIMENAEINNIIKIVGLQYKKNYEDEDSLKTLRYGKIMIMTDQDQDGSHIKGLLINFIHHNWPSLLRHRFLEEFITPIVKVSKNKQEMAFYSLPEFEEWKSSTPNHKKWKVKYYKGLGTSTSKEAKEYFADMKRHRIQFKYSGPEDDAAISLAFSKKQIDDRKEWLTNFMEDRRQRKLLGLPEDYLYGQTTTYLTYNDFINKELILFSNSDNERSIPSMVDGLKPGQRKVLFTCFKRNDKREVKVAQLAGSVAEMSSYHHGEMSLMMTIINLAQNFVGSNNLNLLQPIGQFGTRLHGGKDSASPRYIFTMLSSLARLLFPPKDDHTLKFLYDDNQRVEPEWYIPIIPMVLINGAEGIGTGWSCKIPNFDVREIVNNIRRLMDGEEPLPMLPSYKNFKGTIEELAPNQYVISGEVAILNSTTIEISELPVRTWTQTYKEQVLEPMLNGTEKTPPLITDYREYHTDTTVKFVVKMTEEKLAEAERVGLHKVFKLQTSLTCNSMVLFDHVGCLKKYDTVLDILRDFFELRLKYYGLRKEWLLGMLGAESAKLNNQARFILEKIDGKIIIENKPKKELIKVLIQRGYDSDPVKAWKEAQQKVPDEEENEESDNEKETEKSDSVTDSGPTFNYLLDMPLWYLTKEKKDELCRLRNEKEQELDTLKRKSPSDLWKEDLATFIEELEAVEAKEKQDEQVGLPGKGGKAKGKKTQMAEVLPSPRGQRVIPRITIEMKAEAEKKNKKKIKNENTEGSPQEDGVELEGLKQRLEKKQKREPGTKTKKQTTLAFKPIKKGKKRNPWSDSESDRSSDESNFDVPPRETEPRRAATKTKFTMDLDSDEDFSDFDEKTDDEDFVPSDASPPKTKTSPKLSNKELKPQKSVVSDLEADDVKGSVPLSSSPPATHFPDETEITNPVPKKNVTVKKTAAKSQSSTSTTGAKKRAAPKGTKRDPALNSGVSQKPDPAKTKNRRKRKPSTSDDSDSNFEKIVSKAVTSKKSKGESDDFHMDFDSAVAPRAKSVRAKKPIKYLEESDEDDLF

Oc1ccc(-c2cc(-c3ccccc3Cl)nc3c2Cc2c(O)cccc2-3)cc1
remaining at 0 h [1]: 100%
Stability [2]: 119.6%
inhibition [3]: 0%
inhibition [4]: inactive
mortality at 168 h [5]: 0%
IC50 [6]: 72 nM
remaining at 0.25 h [7]: 102%
IC50 [8]: 2.67 nM
Stability [9]: 130.4%
Activity [10]: Active
Activity [11]: Non-Toxic
remaining at 4 h [12]: 105%
